Target: Factor D (Homo sapiens (Human), UniProt P00746)
Assay: Factor D esterolytic assay (Z-Lys-SBzl substrate, DTNB, 405 nm)
Type: biochemical
Settings: Z-Lys-SBzl 1.29 mM, pH 7.5, 10% DMSO, tested a minimum of three times, read-out: Measured Ki (IC50) Value for Compounds: IC50
In short: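 Human Factor D ([…]) with 1.29 mM Z-Lys-SBzl in 100 mM HEPES, 500 mM NaCl, pH 7.5, 10% DMSO; substrate added immediately or after room-temperature preincubation. Released thiol reacted with DTNB, rate followed at 405 nm for 600 sec, 690 nm background subtracted. IC50 from percent inhibition versus uninhibited rate, n≥3.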

Chain of Factor D (P00746 26-253): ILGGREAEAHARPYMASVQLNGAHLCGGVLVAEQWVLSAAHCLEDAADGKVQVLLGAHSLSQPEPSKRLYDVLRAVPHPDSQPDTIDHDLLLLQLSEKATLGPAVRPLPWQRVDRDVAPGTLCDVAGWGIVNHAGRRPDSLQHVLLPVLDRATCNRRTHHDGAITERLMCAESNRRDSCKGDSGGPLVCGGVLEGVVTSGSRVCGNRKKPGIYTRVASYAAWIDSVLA

| SMILES | IC50 |
| --- | --- |
| NCc1cccc(-c2cc(COc3ccccc3CC(=O)O)nc3[nH]ccc23)c1 [Compound 52a, 2-(2-((4-(3-(aminomethyl)phenyl)-1H-pyrrolo[2,3-b]pyridin-6-yl)methoxy)phenyl)acetic acid] | < 1000 nM |
| Cc1cccc(CC(=O)O)c1NC(=O)c1nc(-c2cccc(CN)c2)nn2cccc12 [Compound 53d, 2-(2-(2-(3-(aminomethyl)phenyl)pyrrolo[2,1-f][1,2,4]triazine-4-carboxamido)-3-methylphenyl)acetic acid] | < 1000 nM |
| Cc1cc(NC(=O)c2nc(-c3cccc(CN)c3F)nn3cccc23)n(CC(=O)O)n1 [Compound 54d, 2-(5-(2-(3-(aminomethyl)-2-fluorophenyl)pyrrolo[2,1-f][1,2,4]triazine-4-carboxamido)-3-methyl-1H-pyrazol-1-yl)acetic acid] | > 10000 nM |
| NCc1cccc(-c2cc(COc3ccccc3CC(=O)O)cc3cc(C4CC4)oc23)c1 [Compound 55g, 2-(2-((7-(3-(aminomethyl)phenyl)-2-cyclopropylbenzofuran-5-yl)methoxy)phenyl)acetic acid] | < 1000 nM |
| NCc1cccc(-c2cc(COc3ccccc3CC(=O)O)cc3ccoc23)c1F [Compound 56c, 2-(2-((7-(3-(aminomethyl)-2-fluorophenyl)benzofuran-5-yl)methoxy)phenyl)acetic acid] | < 1000 nM |
| Cc1ccc(S(=O)(=O)n2ccc3c(-c4cccc(CN)c4F)cc(COc4ccccc4CC(=O)O)cc32)cc1 [Compound 57c, 2-(2-((4-(3-(aminomethyl)-2-fluorophenyl)-1-tosyl-1H-indol-6-yl)methoxy)phenyl)acetic acid] | < 1000 nM |
| NCc1cccc(-c2cc(COc3ccccc3CC(=O)O)cc3[nH]ccc23)c1F [Compound 58b, 2-(2-((4-(3-(aminomethyl)-2-fluorophenyl)-1H-indol-6-yl)methoxy)phenyl)acetic acid] | < 1000 nM |

The remaining lines, values ahead:

| IC50 | SMILES |
| --- | --- |
| < 1000 nM | N[C@H](CO)c1cccc(-c2cc(COc3ccccc3CC(=O)O)cc3ccoc23)c1 [Compound 59d, (S)-2-(2-((7-(3-(1-amino-2-hydroxyethyl)phenyl)benzofuran-5-yl)methoxy)phenyl)acetic acid] |
| < 1000 nM | NCc1cc(-c2cc(COc3ccccc3CC(=O)O)cc3ccoc23)ccc1F [Compound 60c, 2-(2-((7-(3-(aminomethyl)-4-fluorophenyl)benzofuran-5-yl)methoxy)phenyl)acetic acid] |
| 1000 to 10000 nM | CN(C)c1nc2cc(C(=O)Nc3ccccc3CC(=O)O)cc(-c3cccc(CN)c3)c2o1 [Compound 61f, 2-(2-(7-(3-(aminomethyl)phenyl)-2-(dimethylamino)benzo[d]oxazole-5-carboxamido)phenyl)acetic acid] |
| < 1000 nM | NCc1cccc(-c2cc(C(=O)Nc3ccccc3CC(=O)O)cc3cc(C4CC4)oc23)c1 [Compound 62c, 2-(2-(7-(3-(aminomethyl)phenyl)-2-cyclopropylbenzofuran-5-carboxamido)phenyl)acetic acid] |
| < 1000 nM | Cc1ccc(CC(=O)O)c(NC(=O)c2nc(-c3cc(F)cc(CN)c3)nn3cccc23)c1 [Compound 63c, 2-(2-(2-(3-(aminomethyl)-5-fluorophenyl)pyrrolo[2,1-f][1,2,4]triazine-4-carboxamido)-4-methylphenyl)acetic acid] |
| < 1000 nM | NCc1cccc(-c2nc(C(=O)Nc3ccccc3CC(=O)O)c3ccccc3n2)c1 [Compound 64f, 2-(2-(2-(3-(aminomethyl)phenyl)quinazoline-4-carboxamido)phenyl)acetic acid] |
| < 1000 nM | C[C@@H](N)c1cccc(-c2cc(COc3ccccc3CC(=O)O)cc3ccoc23)c1F [Compound 65c, (R)-2-(2-((7-(3-(1-aminoethyl)-2-fluorophenyl)benzofuran-5-yl)methoxy)phenyl)acetic acid] |
| < 1000 nM | C[C@H](N)c1cccc(-c2cc(COc3ccccc3CC(=O)O)cc3ccoc23)c1F [Compound 66c, (S)-2-(2-((7-(3-(1-aminoethyl)-2-fluorophenyl)benzofuran-5-yl)methoxy)phenyl)acetic acid] |

From patent publication US11370774B2, “Substituted benzofuran, benzopyrrole, benzothiophene, and structurally related complement inhibitors” (BioCryst Pharmaceuticals, Inc., priority 2018, dated 2022)
